# In PMC9223267, “Serine hydroxymethyltransferase as a potential target of antibacterial agents acting synergistically with one-carbon metabolism-related inhibitors” (Communications Biology, 2022):
# Read-outs that look alike come from different tables or passages of the source.
# Legend:
# [1] = system: E. faecium; assay: Antibacterial activity evaluation (turbidity, OD600); format: cell-based, Enterococcus faecium (JCM5804); conditions: Enterococcus faecium
# Description: (§1) E. faecium and E. faecalis were diluted to turbidity equivalents that matched 1.0 McFarland (McF) standard in distilled water (S. aureus and E. coli were also diluted to 0.5 McF), and additionally diluted 1:200 in Mueller–Hinton (MH) broth. The designated concentrations of the tested compounds were prepared by ten-fold serial dilutions directly in 96-well microtiter plates (IWAKI, Shizuoka, Japan), as previously described. […] The other compounds were serially diluted from 20 μM downwards (final concentration, 10 μM). […] Positive control wells included bacteria without any compound, and the negative control wells only contained MH broth. […] The optical density at 600 nm (OD600) was measured using a GloMax microtiter plate reader (Promega, WI, USA), and the EC50 values of each test compound and standard error were calculated by Microsoft Excel function, AVERAGE and STDEV/SQRT.
# [2] = system: E. faecalis; assay: as above; format: cell-based, Enterococcus faecalis (JCM7783); conditions: Enterococcus faecalis, E. faecalis JCM7783
# Description: as §1
# [3] = system: S. aureus; assay: as above; format: cell-based, Staphylococcus aureus (ATCC29213); conditions: Staphylococcus aureus, S. aureus ATCC29213
# Description: as §1
# [4] = system: E. coli; assay: as above; format: cell-based, Escherichia coli (ATCC25922); conditions: Escherichia coli, E. coli ATCC25922
# Description: as §1
# [5] = system: E. faecium; assay: Antibacterial assay with an excess concentration of biomolecules (Ser, Gly, inosine, dT, FA); format: cell-based, Enterococcus faecium (JCM5804); conditions: Enterococcus faecium
# Description: as §1
# The ratio of the control EC50 (no competitors added) to the experimental EC50 (competitors added) was calculated for each test substance.
# [6] = system: efmSHMT; format: binding, Enterococcus faecium; conditions: DSF; final drug concentration 50 μM
# Description: Protein samples were prepared as 20 μL aliquots containing 0.1 mg/mL protein (efmSHMT/ecSHMT), 1 μL of the ligand in DMSO (final drug concentration, 50 μM) and 2% or 4% SYPRO Orange (Invitrogen, MA, USA). […] Melting points were evaluated as the half-point of the maximum intensity of each curve.
# [7] = molecular target: efmSHMT (Enterococcus faecium, UniProt I3U4H4, M1V); assay: biochemical; format: binding; conditions: 5 μM efmSHMT, 10 mM Gly and 100 μM Ser
# Description: After adding Me-THF, the efmSHMT solution was incubated for 30 min at room temperature. The optical density at 500 and 600 nm (OD500 and OD600) were then measured using a nanodrop spectrophotometer[24],[25]. OD600 was used as the background. After detection, each concentration of inhibitor was added to the efmSHMT solution and incubated for 30 min at room temperature. OD500 and OD600 were measured. The relative OD500 intensity was calculated as relative OD500 = (OD500 – OD600)/(MAXOD500 – OD600), where MAXOD500 is the average OD500 value in the presence of 1000, 2000 and 4000 μM Me-THF without inhibitors. […] Here, IC50 is the concentration of inhibitor added to the efmSHMT solution and [Me-THF] is the EC50 in the presence of the inhibitor concentration. [EC50 without inhibitor] is the EC50 of Me-THF in the absence of the inhibitor.
# [8] = read-out: pEC50 ± S.E. (converted)
# [9] = JCM5804, E. faecium JCM5804, 1 mM Inosine, read-out: EC50
# [10] = JCM5804, E. faecium JCM5804, 1 mM Inosine, read-out: pEC50 ± S.E. (converted)
# [11] = JCM5804, E. faecium JCM5804, 1 mM deoxythymidine, read-out: EC50
# [12] = JCM5804, E. faecium JCM5804, 1 mM deoxythymidine, read-out: pEC50 ± S.E. (converted)
# [13] = JCM5804, E. faecium JCM5804, 10 mM Glycine, read-out: EC50
# [14] = JCM5804, E. faecium JCM5804, 10 mM Glycine, read-out: pEC50 ± S.E. (converted)
# [15] = JCM5804, E. faecium JCM5804, 100 mM Serine, read-out: EC50
# [16] = JCM5804, E. faecium JCM5804, 100 mM Serine, read-out: pEC50 ± S.E. (converted)
# [17] = JCM5804, E. faecium JCM5804, 0.1 M folate, read-out: EC50
# [18] = JCM5804, E. faecium JCM5804, 0.1 M folate, read-out: pEC50 ± S.E. (converted)
# efmSHMT (Enterococcus faecium, UniProt I3U4H4, M1V), sequence (I3U4H4 whole entry M1V): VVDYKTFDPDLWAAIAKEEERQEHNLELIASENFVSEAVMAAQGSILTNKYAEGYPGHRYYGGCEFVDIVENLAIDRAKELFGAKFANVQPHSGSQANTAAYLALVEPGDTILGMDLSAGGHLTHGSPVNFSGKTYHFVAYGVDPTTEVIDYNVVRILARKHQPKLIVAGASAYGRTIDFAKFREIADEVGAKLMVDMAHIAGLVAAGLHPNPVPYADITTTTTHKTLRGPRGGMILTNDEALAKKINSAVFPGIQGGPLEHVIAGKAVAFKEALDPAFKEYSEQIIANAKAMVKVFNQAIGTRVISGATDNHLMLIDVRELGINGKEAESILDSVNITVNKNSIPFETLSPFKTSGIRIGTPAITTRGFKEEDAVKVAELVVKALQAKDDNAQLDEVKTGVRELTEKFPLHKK
Structure (SMILES),EC50 ([2]; read-out: EC50) [nM],"EC50 [2, 8] [nM]",EC50 ([3]; read-out: EC50) [nM],"EC50 [3, 8] [nM]",EC50 ([4]; read-out: EC50) [nM],"EC50 [4, 8] [nM]","EC50 [5, 9] [nM]","EC50 [5, 10] [nM]","EC50 [5, 11] [nM]","EC50 [5, 12] [nM]","EC50 [5, 13] [nM]","EC50 [5, 14] [nM]","EC50 [5, 15] [nM]","EC50 [5, 16] [nM]","EC50 [5, 17] [nM]","EC50 [5, 18] [nM]",also measured
"Nc1nc2[nH]cc(CCc3ccc(C(=O)N[C@@H](CCC(=O)O)C(=O)O)cc3)c2c(=O)[nH]1 [PMX, pemetrexed]",> 100000,> 100000,> 100000,> 100000,> 100000,> 100000,0.074,0.0794,> 100000,> 100000,0.062,0.0631,0.25,0.251,1800,2000,"EC50 ([1]; JCM5804, E. faecium JCM5804, read-out: EC50): 0.052 nM; EC50 ([1]; JCM5804, E. faecium JCM5804, read-out: pEC50 ± S.E. (converted)): 0.0501 nM; ΔTm (thermal stability of efmSHMT) [6]: 0.9 °C; Ki ([7]; Ki, Cheng-Prusoff): 117000 nM; Ki ([7]; pKi ± pSE): 126000 nM"
"CN[C@H](CC(C)C)C(=O)N[C@H]1C(=O)N[C@@H](CC(N)=O)C(=O)N[C@H]2C(=O)N[C@H]3C(=O)N[C@H](C(=O)N[C@H](C(=O)O)c4cc(O)cc(O)c4-c4cc3ccc4O)[C@H](O)c3ccc(c(Cl)c3)Oc3cc2cc(c3O[C@@H]2O[C@H](CO)[C@@H](O)[C@H](O)[C@H]2O[C@H]2C[C@](C)(N)[C@H](O)[C@H](C)O2)Oc2ccc(cc2Cl)[C@H]1O [VCM, vancomycin]",,,,,,,,,,,,,,,,,"EC50 ([1]; VCM in μg/mL, E. faecium JCM5804, read-out: EC50): 0.31 µg/mL; EC50 ([2]; VCM in μg/mL, read-out: EC50): 3.2 µg/mL; EC50 ([3]; VCM in μg/mL, read-out: EC50): 0.36 µg/mL; EC50 ([4]; VCM in μg/mL, read-out: EC50): > 100 µg/mL; EC50 [5]: 0.29 µg/mL; EC50 ([5]; VCM in μg/mL, 1 mM Inosine, read-out: EC50): 0.34 µg/mL; EC50 ([5]; VCM in μg/mL, 1 mM deoxythymidine, read-out: EC50): 0.42 µg/mL; EC50 ([5]; VCM in μg/mL, 100 mM Serine, read-out: EC50): 0.3 µg/mL; EC50 ([5]; VCM in μg/mL, 0.1 M folate, read-out: EC50): 0.31 µg/mL"
"Cc1nc2ccc(CN(C)c3ccc(C(=O)N[C@@H](CCC(=O)O)C(=O)O)s3)cc2c(=O)[nH]1 [RTX, raltitrexed]",> 100000,> 100000,> 100000,> 100000,> 100000,> 100000,8.2,7.94,> 100000,> 100000,10,10,14,12.6,> 100000,> 100000,"EC50 ([1]; E. faecium JCM5804, read-out: EC50): 13 nM; EC50 ([1]; E. faecium JCM5804, read-out: pEC50 ± S.E. (converted)): 12.6 nM"
